According to PubChem BioAssay (NCI):
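Here, GI50 denotes the concentration required for 50% inhibition of growth. TGI: total growth inhibition.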

What was measured:
Assay in all cases: NCI anticancer screen, dose series, 384-well format
[1] = tested on: NCI-H522 lung
[2] = tested on: IGROV1 ovarian
[3] = tested on: SF-268 CNS
[4] = tested on: PC-3 prostate
[5] = tested on: HT29 colon
[6] = tested on: SNB-75 CNS
[7] = tested on: SNB-19 CNS
[8] = tested on: SK-OV-3 ovarian
[9] = tested on: A549 NSCLC
[10] = tested on: MALME-3M melanoma
[11] = tested on: MOLT-4 leukemia
[12] = tested on: MDA-MB-435 melanoma
[13] = tested on: SN12C renal

C=CCN(/C=C1\C(=O)O[C@H](COC)[C@@]2(C)C1=C(O)C(=O)C1=C2[C@H](OC(C)=O)C[C@]2(C)C(=O)CC[C@@H]12)CC=C
GI50 [1]: 2.08 µM
TGI [1]: 14.4 µM
GI50 [2]: 0.406 µM
TGI [2]: 5.26 µM
GI50 [3]: 1.82 µM
TGI [3]: 19.9 µM
GI50 [4]: 0.648 µM
TGI [4]: 18 µM
GI50 [5]: 1.08 µM
TGI [5]: 21.7 µM
GI50 [6]: 1.57 µM
TGI [6]: 10.1 µM
GI50 [7]: 13.7 µM
TGI [7]: > 100 µM
GI50 [8]: 0.68 µM
TGI [8]: 15.3 µM
GI50 [9]: 1.11 µM
TGI [9]: 27.6 µM
GI50 [10]: 0.677 µM
TGI [10]: 12.2 µM
GI50 [11]: 0.333 µM
TGI [11]: 2.02 µM
GI50 [12]: 8.15 µM
TGI [12]: 38.1 µM
GI50 [13]: 2.08 µM
TGI [13]: > 100 µM
